Data published in patent US12227514B2, “Crystal forms of thiophene derivatives” (TIANJIN HEMAY PHARMACEUTICAL CO., LTD., priority 2018, dated 2025).

What was measured:
Format in all cases: physicochemical
[1] = Dissolution rate in water; conditions: about 25 mg in 900 mL water, 37° C., rotating speed 100/minute
Protocol: The crystal form I of (S)—N-[5-[1-(3-ethoxy-4-methoxyphenyl)-2-(methylsulfonyl)ethyl]-4,6-dioxo-5,6-dihydro-4H-thieno[3,4-c]pyrrole-1-yl]acetamide prepared according to the process in Example 1 was tested.
About 25 mg of crystal form I of (S)—N-[5-[1-(3-ethoxy-4-methoxyphenyl)-2-(methylsulfonyl)ethyl]-4,6-dioxo-5,6-dihydro-4H-thieno[3,4-c]pyrrole-1-yl]acetamide was added to 900 mL of water. The mixture was stirred at a rotating speed of 100/minute at 37° C. for 90 minutes. The supernatant was filtered and diluted. The concentration of the diluted solution (a mg/mL) was determined by ultraviolet spectrophotometer. The dissolution rate was calculated according to the formula 900a/25×100%.

Illumination stability = assay: Illumination stability
Protocol: Crystal form I of (S)—N-[5-[1-(3-ethoxy-4-methoxyphenyl)-2-(methylsulfonyl)ethyl]-4,6-dioxo-5,6-dihydro-4H-thieno[3,4-c]pyrrole-1-yl]acetamide was placed in a 4500 lux of illumination box for 1 month. Crystal form stability of (S)—N-[5-[1-(3-ethoxy-4-methoxyphenyl)-2-(methylsulfonyl)ethyl]-4,6-dioxo-5,6-dihydro-4H-thieno[3,4-c]pyrrole-1-yl]acetamide was tested after 1 month.

[2] = Pressure stability (tablet press, DSC); conditions: single punch tablet press, tablet diameter 6 mm, hardness 25-30 N
Protocol: Crystal form I of (S)—N-[5-[1-(3-ethoxy-4-methoxyphenyl)-2-(methylsulfonyl)ethyl]-4,6-dioxo-5,6-dihydro-4H-thieno[3,4-c]pyrrole-1-yl]acetamide was pressed by tablet press machine with single punch. The diameter of the tablet was 6 mm and the hardness was 25-30 N. DSC test was carried out on pressed powder.

[3] = High temperature stability and high temperature and high humidity stability; conditions: for Relevant Substance Contents after 1 Month: storage at 40° C.
Protocol: High Temperature Stability and High Temperature and High Humidity Stability Crystal form I of (S)—N-[5-[1-(3-ethoxy-4-methoxyphenyl)-2-(methylsulfonyl)ethyl]-4,6-dioxo-5,6-dihydro-4H-thieno[3,4-c]pyrrole-1-yl]acetamide was placed at 40° C. (high temperature) or at 40° C. and Rh=75% (high temperature and high humidity) for 1 month. Relevant substance contents of crystal form I of (S)—N-[5-[1-(3-ethoxy-4-methoxyphenyl)-2-(methylsulfonyl)ethyl]-4,6-dioxo-5,6-dihydro-4H-thieno[3,4-c]pyrrole-1-yl]acetamide were tested after 1 month.

[4] = Moisture absorption stability; conditions: RH=80%
Protocol: Crystal form I of (S)—N-[5-[1-(3-ethoxy-4-methoxyphenyl)-2-(methylsulfonyl)ethyl]-4,6-dioxo-5,6-dihydro-4H-thieno[3,4-c]pyrrole-1-yl]acetamide was placed in a drier containing saturated ammonium chloride solution (RH=80%) until weight was balanced. The crystal form stability of (S)—N-[5-[1-(3-ethoxy-4-methoxyphenyl)-2-(methylsulfonyl)ethyl]-4,6-dioxo-5,6-dihydro-4H-thieno[3,4-c]pyrrole-1-yl]acetamide was tested after weight was balanced.

## CCOc1cc([C@@H](CS(C)(=O)=O)N2C(=O)c3csc(NC(C)=O)c3C2=O)ccc1OC [crystal form I, (S)—N-[5-[1-(3-ethoxy-4-methoxyphenyl)-2-(methylsulfonyl)ethyl]-4,6-dioxo-5,6-dihydro-4H-thieno[3,4-c]pyrrole-1-yl]acetamide]
[1]; time 15 min
  Dissolution Rate: 40.0%
[1]; time 30 min
  Dissolution Rate: 55.9%
[1]; time 45 min
  Dissolution Rate: 65.2%
[1]; time 60 min
  Dissolution Rate: 71.4%
[1]; time 75 min
  Dissolution Rate: 75.5%
[1]; time 90 min
  Dissolution Rate: 78.0%
Illumination stability; 4500 lux illumination box
  Relevant Substance Contents after 1 Month: 0.06%
Illumination stability; 4500 lux, 1 month
  Chemical stability under illumination conditions: good chemical stability
Illumination stability; before illumination
  Relevant Substance Contents at Day 0: 0.06%
[2]
  Pressure stability (DSC curve of pressed powder compared with FIG. 2): good stability
[3]; 40° C. or 40° C. and RH 75%, 1 month
  Chemical stability under high temperature and high-temperature and high-humidity conditions: good chemical stability
[3]; before storage
  Relevant Substance Contents at Day 0: 0.06%
[3]
  Relevant Substance Contents after 1 Month: 0.07%
[3]; RH = 75%
  Relevant Substance Contents after 1 Month: 0.09%
[4]
  Crystal form stability under high humidity conditions: good crystal form stability
